# Like-named read-outs stand apart in the source and are kept apart here. Marks after values point to notes of the source that are not given here.
# Experiments:
# physchem = assay type: physicochemical; settings: pH 7.4
# Method: (§1) To evaluate the label’s stability, 10 μL (0.25 μg) of radiolabeled conjugates was incubated with 300× molar excess of cysteine or with PBS for 1 h at room temperature. The test was run in triplicate. The release of free technetium-99m was controlled by using iTLC and radio-HPLC analysis. The stability in serum was analyzed by mixing the radioconjugates (0.25 μg in 10 μL) with murine serum or PBS (40 μL) as a control. The samples were incubated for 1 h at 37 °C and analyzed by iTLC. The experiment was performed in triplicate. The octanol–water distribution coefficient (Log D) was determined experimentally by the addition of 100 pmol of the radiolabeled tracer to an Eppendorf tube containing PBS (500 μL) and n-octanol (500 μL), pH ∼ 7.4. The solution was vortexed and centrifuged, and aliquots (50 μL) from each phase were collected and measured using a gamma counter. The experiment was performed in triplicate.
# PSMA = molecular target: T1, PSMA (Homo sapiens, UniProt Q04609); test: binding kinetics in real time on living PC3-pip cells (LigandTracer Yellow)
# T1 construct: expressed in transfected cells; host or cells: PC3-pip (PSMA-transfected PC-3 prostate carcinoma cells), from Prof; Martin G. Pomper, Johns Hopkins University
# T1 sequence (Q04609 whole entry): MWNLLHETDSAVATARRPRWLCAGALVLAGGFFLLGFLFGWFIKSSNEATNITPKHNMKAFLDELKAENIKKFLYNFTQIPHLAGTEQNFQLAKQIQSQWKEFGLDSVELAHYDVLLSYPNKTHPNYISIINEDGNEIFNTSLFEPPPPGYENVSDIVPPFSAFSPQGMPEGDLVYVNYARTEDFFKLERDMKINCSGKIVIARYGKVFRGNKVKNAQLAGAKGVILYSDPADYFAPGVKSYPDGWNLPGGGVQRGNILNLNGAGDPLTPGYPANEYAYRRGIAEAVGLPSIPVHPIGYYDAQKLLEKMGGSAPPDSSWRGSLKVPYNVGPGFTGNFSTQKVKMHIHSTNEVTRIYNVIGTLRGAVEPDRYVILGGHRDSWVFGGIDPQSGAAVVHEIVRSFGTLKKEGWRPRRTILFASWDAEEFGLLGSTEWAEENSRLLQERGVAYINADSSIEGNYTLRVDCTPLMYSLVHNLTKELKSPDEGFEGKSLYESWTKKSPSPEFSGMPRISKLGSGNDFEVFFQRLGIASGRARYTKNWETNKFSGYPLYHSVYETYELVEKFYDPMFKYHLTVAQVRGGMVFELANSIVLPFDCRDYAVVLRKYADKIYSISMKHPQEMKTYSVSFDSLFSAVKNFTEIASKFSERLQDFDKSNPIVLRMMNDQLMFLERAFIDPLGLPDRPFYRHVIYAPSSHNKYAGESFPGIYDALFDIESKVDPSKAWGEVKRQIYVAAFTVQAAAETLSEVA
# Method: The binding kinetics of technetium-99m-labeled BQ0413, BQ0500, and BQ0501 were determined in PC3-pip cells in real-time using LigandTracer Yellow (Ridgeview Instruments AB, Uppsala, Sweden). The activity binding was recorded with 5 nM radiolabeled tracers for 150 min. After the binding kinetics were measured, the medium containing the labeled tracer was replaced with fresh medium, and the dissociation was monitored over 7 h. The association rate (k a) and the dissociation rate (k d) were computed using a 1:2 kinetic binding model in TraceDrawer software (Ridgeview Instruments AB, Uppsala, Sweden), and the equilibrium dissociation constant K D was calculated.
# PC3-pip cells [1] = test: cellular processing (membrane-bound / internalized activity); assay type: cell-based; settings: 2 nM, continuous incubation, after 8 h
# Method: To evaluate cellular processing of technetium-99m-labeled BQ0500 and BQ0501, PC3-pip cells were incubated with the radiolabeled tracer (2 nM), and at 1, 2, 4, and 8 h of continuous incubation, the membrane-bound and internalized fractions were collected as previously described using 4 M urea solution in 0.2 M glycine buffer (pH 2) to collect membrane-bound fraction and 1 N solution of NaOH to collect the internalized fraction. The activity in the samples was measured, and the percentage of membrane-bound and internalized activity was calculated. The experiments were performed in triplicate.
# PC3-pip xenografts = test: biodistribution and tumor targeting in PC3-pip tumor-bearing mice; assay type: in vivo
# From the text: The injected masses for the in vivo experiments were chosen based on the findings for [^99mTc]-Tc-BQ0413: to study the general biodistribution of radiolabeled tracers in normal mice (NMRI), 40 pmol of tracer was used to avoid blocking of PSMA-mediated uptake in kidneys and salivary glands, to study tumor targeting, 5 nmol of tracer was used to decrease uptake in PSMA-expressing organs.
# PSMA-expressing PCa xenografts were implanted in BALB/c nu/nu mice by subcutaneous injection of the PC3-pip cell suspension in PBS (10^7 cells/animal in 100 μL). The average animal weight in the experiment was 18 ± 2 g. The average tumor weight was 0.4 ± 0.2 g. For in vivo specificity control, 10^7 cells/animal PSMA-negative PC-3 cells were implanted. The average animal weight was 18 ± 1 g. The average tumor weight was 0.1 ± 0.1 g. Four mice per data point were used in the in vivo experiments.
# For tumor-bearing mice, each mouse was intravenously injected with 5 nmol of [^99mTc]-Tc-BQ0413, [^99mTc]-Tc-BQ0500, and [^99mTc]-Tc-BQ0501 (60 kBq; the mass of the injected compound was adjusted with an unlabeled tracer). The mice were euthanized after lethal intraperitoneal injection of ketamine/xylazine, followed by exsanguination 1 and 3 h pi, similarly to the procedure described above.
# [2] = assay type: in vitro ADME, murine; settings: 1 h
# Method: as §1
# PC3-pip cells [3] = test: in vitro binding specificity test; assay type: cell-based; settings: 1 h, 37 °C
# Method: For the in vitro binding specificity test, approximately 8 × 10^5 PC3-pip cells per well were seeded 24 h before the experiment. […] Technetium-99m-labeled tracers were added to each well to reach a concentration of 2 nM. After 1 h of incubation at 37 °C, cells were washed with PBS solution, detached, and collected. Cell-associated activity was measured using a gamma counter and presented as the percentage of added activity.
# [4] = PC3-pip tumor-bearing mice, 5 nmol/mouse iv, 1 h pi
# [5] = PC3-pip tumor-bearing mice, 5 nmol/mouse iv, 3 h pi
# [6] = PC3-pip tumor-bearing mice, 5 nmol/mouse iv, 3 h pi, listed as [99mTc]Tc-BQ0501
smiles,measurement,setting,value
"CC(=O)NC(CCCCNC(=O)CNC(=O)C(CO)NC(=O)C(CO)NC(=O)C(CO)NC(=O)CS)C(=O)NCCCCCCCC(=O)NC(Cc1ccc(O)cc1)C(=O)NC(Cc1ccc2ccccc2c1)C(=O)NCCCCC(NC(=O)NC(CCC(=O)O)C(=O)O)C(=O)O (centres unmarked) [[^99mTc]Tc-BQ0501, metal not drawn]",logD,physchem,-2.4 ± 0.1
same,B max1 (binding maximum),"PSMA; 5 nM tracer, 1:2 model (1:1 for BQ0413)",492 CPS
same,Kd,"PSMA; 5 nM tracer, 1:2 model (1:1 for BQ0413), read-out: K D1",0.474 nM
same,kon,"PSMA; 5 nM tracer, 1:2 model (1:1 for BQ0413), read-out: k a1 (association rate)",27000 M⁻¹ s⁻¹
same,koff,"PSMA; 5 nM tracer, 1:2 model (1:1 for BQ0413), read-out: k d1 (dissociation rate)",1.2e-05 s⁻¹
same,B max2 (binding maximum),"PSMA; 5 nM tracer, 1:2 model, second interaction",272 CPS
same,Kd,"PSMA; 5 nM tracer, 1:2 model, second interaction, read-out: K D2",3.6 nM
same,kon,"PSMA; 5 nM tracer, 1:2 model, second interaction, read-out: k a2 (association rate)",49000 M⁻¹ s⁻¹
same,koff,"PSMA; 5 nM tracer, 1:2 model, second interaction, read-out: k d2 (dissociation rate)",0.00016 s⁻¹
same,affinity compromised in comparison with [99mTc]Tc-BQ0413,PSMA; PC3-pip cells,3–5 fold
same,Kd,"PSMA; as rounded in comparison table, read-out: K D1",0.5 nM
same,Kd,"PSMA; as rounded in comparison table, read-out: K D2",3.6 nM
same,maximum of internalized activity,PC3-pip cells [1],42–43 % of cell-associated activity
same,activity in carcass,PC3-pip xenografts; [4],8 ± 2 ^b %IA/sample
same,activity in intestines with content,PC3-pip xenografts; [4],9 ± 1 ^b ^e %IA/sample
same,activity uptake in blood,PC3-pip xenografts; [4],1.6 ± 0.5 ^b %IA/g
same,activity uptake in bone,PC3-pip xenografts; [4],0.4 ± 0.1 ^b ^e %IA/g
same,activity uptake in kidney,PC3-pip xenografts; [4],21 ± 6 ^b %IA/g
same,activity uptake in liver,PC3-pip xenografts; [4],1.8 ± 0.7 ^b %IA/g
same,activity uptake in lung,PC3-pip xenografts; [4],1.6 ± 0.4 ^b %IA/g
same,activity uptake in muscle,PC3-pip xenografts; [4],0.3 ± 0.1 ^b %IA/g
same,activity uptake in pancreas,PC3-pip xenografts; [4],0.45 ± 0.05 ^b %IA/g
same,activity uptake in salivary gland,PC3-pip xenografts; [4],"0.6 ± 0.2 ^b ^, ^e %IA/g"
same,activity uptake in small intestines,PC3-pip xenografts; [4],1.4 ± 0.6 ^b ^e %IA/g
same,activity uptake in spleen,PC3-pip xenografts; [4],2.4 ± 0.5 ^b %IA/g
same,activity uptake in stomach,PC3-pip xenografts; [4],0.6 ± 0.2 ^b ^e %IA/g
same,activity uptake in tumor,PC3-pip xenografts; [4],27 ± 7 %IA/g
same,tumor-to-blood ratio,PC3-pip xenografts; [4],19 ± 8 ^b
same,tumor-to-bone ratio,PC3-pip xenografts; [4],"62 ± 18 ^b ^, ^e"
same,tumor-to-kidney ratio,PC3-pip xenografts; [4],1.3 ± 0.5 ^b
same,tumor-to-liver ratio,PC3-pip xenografts; [4],17 ± 7 ^b
same,tumor-to-lung ratio,PC3-pip xenografts; [4],17 ± 6 ^b
same,tumor-to-muscle ratio,PC3-pip xenografts; [4],86 ± 34 ^b
same,tumor-to-pancreas ratio,PC3-pip xenografts; [4],62 ± 24 ^b
same,tumor-to-salivary gland ratio,PC3-pip xenografts; [4],"47 ± 19 ^b ^, ^e"
same,tumor-to-small intestines ratio,PC3-pip xenografts; [4],22 ± 11 ^b
same,tumor-to-spleen ratio,PC3-pip xenografts; [4],12 ± 5 ^b
same,tumor-to-stomach ratio,PC3-pip xenografts; [4],"46 ± 18 ^b ^, ^e"
same,activity in carcass,PC3-pip xenografts; [5],3 ± 1 %IA/sample
same,activity in intestines with content,PC3-pip xenografts; [5],11.0 ± 0.5 ^e %IA/sample
same,activity uptake in blood,PC3-pip xenografts; [5],0.14 ± 0.07 %IA/g
same,activity uptake in bone,PC3-pip xenografts; [5],0.07 ± 0.03 ^e %IA/g
same,activity uptake in kidney,PC3-pip xenografts; [5],4 ± 2 ^e %IA/g
same,activity uptake in liver,PC3-pip xenografts; [5],0.18 ± 0.06 %IA/g
same,activity uptake in lung,PC3-pip xenografts; [5],0.21 ± 0.07 %IA/g
same,activity uptake in muscle,PC3-pip xenografts; [5],0.08 ± 0.04 %IA/g
same,activity uptake in pancreas,PC3-pip xenografts; [5],0.1 ± 0.1 %IA/g
same,activity uptake in salivary gland,PC3-pip xenografts; [5],0.14 ± 0.06 ^e %IA/g
same,activity uptake in small intestines,PC3-pip xenografts; [5],0.17 ± 0.03 %IA/g
same,activity uptake in spleen,PC3-pip xenografts; [5],0.3 ± 0.2 %IA/g
same,activity uptake in stomach,PC3-pip xenografts; [5],0.14 ± 0.06 %IA/g
same,tumor-to-bone ratio,PC3-pip xenografts; [5],515 ± 113 ^e
same,tumor-to-kidney ratio,PC3-pip xenografts; [5],10 ± 2 ^e
same,tumor-to-liver ratio,PC3-pip xenografts; [5],222 ± 89 ^e
same,tumor-to-lung ratio,PC3-pip xenografts; [5],178 ± 61 ^e
same,tumor-to-muscle ratio,PC3-pip xenografts; [5],504 ± 195
same,tumor-to-pancreas ratio,PC3-pip xenografts; [5],463 ± 135 ^e
same,tumor-to-salivary gland ratio,PC3-pip xenografts; [5],302 ± 146 ^e
same,tumor-to-small intestines ratio,PC3-pip xenografts; [5],209 ± 46
same,tumor-to-spleen ratio,PC3-pip xenografts; [5],121 ± 47 ^e
same,tumor-to-stomach ratio,PC3-pip xenografts; [5],287 ± 102 ^e
same,activity in carcass,PC3-pip xenografts; [6],3±1 %IA/sample
same,activity in intestines with content,PC3-pip xenografts; [6],11.0±0.5 %IA/sample
same,activity uptake in blood,PC3-pip xenografts; [6],0.14±0.07 %IA/g
same,activity uptake in bone,PC3-pip xenografts; [6],0.07±0.03 %IA/g
same,activity uptake in kidney,PC3-pip xenografts; [6],4±2 %IA/g
same,activity uptake in liver,PC3-pip xenografts; [6],0.18±0.06 %IA/g
same,activity uptake in lung,PC3-pip xenografts; [6],0.21±0.07 %IA/g
same,activity uptake in muscle,PC3-pip xenografts; [6],0.08±0.04 %IA/g
same,activity uptake in pancreas,PC3-pip xenografts; [6],0.1±0.1 %IA/g
same,activity uptake in salivary gland,PC3-pip xenografts; [6],0.14±0.06 %IA/g
same,activity uptake in small intestines,PC3-pip xenografts; [6],0.17±0.03 %IA/g
same,activity uptake in spleen,PC3-pip xenografts; [6],0.3±0.2 %IA/g
same,activity uptake in stomach,PC3-pip xenografts; [6],0.14±0.06 %IA/g
same,activity uptake in tumor,PC3-pip xenografts; [6],35±4 %IA/g
same,excretion pathway,PC3-pip xenografts; PC3-pip xenografts,predominantly renal
same,intact tracer in PBS,"[2]; PBS control, 37 °C, n = 3",97.4 ± 0.9%
same,intact tracer in murine serum,"[2]; mouse, 5 µg/mL",98.7 ± 0.6%
same,activity uptake by PC3-pip cells,PC3-pip cells [3]; 2 nM tracer,62 ± 7 % of added activity
same,activity uptake by PC3-pip cells after presaturation with PSMA-11,"PC3-pip cells [3]; 250-fold excess of nonlabeled PSMA-11, 2 nM tracer",significantly (p < 0.0001) decreased

# Source: publication PMC12519282, “Reduction of Negative Charge in Mercaptoacetyl-Based Chelators Influences the Biodistribution of Prostate-Specific Membrane Antigen-Targeting Pseudopeptides Labeled with Technetium-99m” (ACS Pharmacology & Translational Science, 2025)
